Numbered stars: 1 amine (or outer) side, 2 acyl side, 3 side chain; on linkers, the order of the positions; unused ones are H or OH. Square brackets hold non-standard residues; d marks the D form. Side chains are listed from the residue outwards. * marks the point of attachment. C20 diacid = O=C(O)CCCCCCCCCCCCCCCCCCC(=O)*; C18 diacid = O=C(O)CCCCCCCCCCCCCCCCC(=O)*; γGlu = O=C(O)[C@H](CCC(=O)[*:2])N[*:1]; AEEA = NCCOCCOCC(=O)O; Aib = CC(C)(N)C(=O)O
molecular target: T1, human GIP receptor (hGIPR) (Homo sapiens, UniProt P48546); assay: GIP receptor assay, method A (CRE-luciferase reporter, BHK cells); type: cell-based; conditions: hGIPR Potency, 1% HSA, EC50, method A, in the presence of 1% HSA
T1 construct: expressed in transfected cells
T1 sequence (P48546 22-466): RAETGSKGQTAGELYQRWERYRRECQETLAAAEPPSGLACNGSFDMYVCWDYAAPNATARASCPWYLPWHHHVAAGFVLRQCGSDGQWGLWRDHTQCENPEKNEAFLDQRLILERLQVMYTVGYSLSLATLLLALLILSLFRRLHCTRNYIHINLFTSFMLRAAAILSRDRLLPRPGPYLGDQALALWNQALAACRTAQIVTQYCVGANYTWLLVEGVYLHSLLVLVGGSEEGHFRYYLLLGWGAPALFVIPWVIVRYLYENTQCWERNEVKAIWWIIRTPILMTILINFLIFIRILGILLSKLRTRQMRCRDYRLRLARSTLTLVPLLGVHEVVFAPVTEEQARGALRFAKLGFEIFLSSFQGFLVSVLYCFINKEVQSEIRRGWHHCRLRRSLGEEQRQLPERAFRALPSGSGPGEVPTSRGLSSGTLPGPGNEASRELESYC
Procedure, shortened: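 BHK cells co-expressing hGIPR and a CRE-luciferase reporter were stimulated for 3 h at 37 °C with a 7-point, 10-fold compound titration in duplicate. Buffer was DMEM, 10 mM HEPES, 1% ovalbumin, 0.1% Pluronic F-68, without HSA or with 1% (w/v) HSA. EC50 [pM] came from four-parameter logistic fits of luminescence.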

Going from “H[Aib]HGTFTSDYSILLEEQAAREFIEWLLAGGPSK([AEEA-AEEA-γGlu-C18 diacid])GAPPPSGGGEASHLSTAQTARLSAELHQLATLPRTETGSGSP-NH2 [compound 101]” to “H[Aib]HGTFTSDYSILLEEQAAREFIEWLLAGGPSK([AEEA-AEEA-γGlu-C18 diacid])GAPPPSGGGGASELSTAALGRLSAELHRLATLPRTETGSGSP-NH2 [Compound 14]”, the EC50 rises from 0.129 nM to 0.254 nM (2-fold).

Compared with “H[Aib]HGTFTSDYSILLEEQAAREFIEWLLAGGPSK([AEEA-AEEA-γGlu-C18 diacid])GEASHLSTAQTARLSAELHELATLPRTETGSGSP-NH2 [Compound 36]”, “H[Aib]HGTFTSDYSILLEEQAAREFIEWLLAGGPSK([AEEA-AEEA-γGlu-C18 diacid])GEASQLSTAALGRLSAELHQLATLPRTETGSGSP-NH2 [Compound 64]” is 2.3-fold lower in EC50: 0.226 nM for the first, 0.1 nM for the second.

Going from “H[Aib]HGTFTSDYSILLEEQAAREFIEWLLAGGPSK([AEEA-AEEA-γGlu-C18 diacid])GEASQLSTAALGRLSAELHTLATLPRTETGSGSP-NH2 [Compound 63]” to “H[Aib]HGTFTSDYSILLEEQAAREFIEWLLAGGPSK([AEEA-AEEA-γGlu-C20 diacid])GAPPPSGGGEASELSTAALGRLSAELHELATLPRTETGSGSP-NH2 [Compound 16]”, the EC50 rises from 0.0632 nM to 0.485 nM (7.7-fold). The first is the more potent here.

same assay, conditions: method A, absence of HSA; read-out: hGIPR Potency, no HSA, EC50

Going from “H[Aib]HGTFTSDYSILLEEQAAREFIEWLLAGGPSK([AEEA-AEEA-γGlu-C18 diacid])GAPPPSGGGEASHLSTAQTARLSAELHQLATLPRTETGSGSP-NH2 [compound 101]” to “H[Aib]HGTFTSDYSILLEEQAAREFIEWLLAGGPSK([AEEA-AEEA-γGlu-C18 diacid])GAPPPSGGGGASELSTAALGRLSAELHRLATLPRTETGSGSP-NH2 [Compound 14]”, the EC50 rises from 0.00187 nM to 0.00584 nM (3.1-fold). The first is the more potent here.

“H[Aib]HGTFTSDYSILLEEQAAREFIEWLLAGGPSK([AEEA-AEEA-γGlu-C18 diacid])GEASHLSTAQTARLSAELHELATLPRTETGSGSP-NH2 [Compound 36]” and “H[Aib]HGTFTSDYSILLEEQAAREFIEWLLAGGPSK([AEEA-AEEA-γGlu-C18 diacid])GEASQLSTAALGRLSAELHQLATLPRTETGSGSP-NH2 [Compound 64]” are within 1.5-fold of each other in EC50: 0.00196 nM for the first, 0.00203 nM for the second.

Going from “H[Aib]HGTFTSDYSILLEEQAAREFIEWLLAGGPSK([AEEA-AEEA-γGlu-C18 diacid])GEASQLSTAALGRLSAELHTLATLPRTETGSGSP-NH2 [Compound 63]” to “H[Aib]HGTFTSDYSILLEEQAAREFIEWLLAGGPSK([AEEA-AEEA-γGlu-C20 diacid])GAPPPSGGGEASELSTAALGRLSAELHELATLPRTETGSGSP-NH2 [Compound 16]”, the EC50 rises from 0.0016 nM to 0.00427 nM (2.7-fold). The first is the more potent here.

test system: Male Sprague Dawley (SD) rats; assay: Efficacy testing on appetite: acute food intake in ad libitum fed normal weight rats; type: in vivo, rat; conditions: single dose 10 nmol/kg, day 1 [0-24 hours]
Description: Male Sprague Dawley (SD) rats from Taconic, Denmark were used for the acute food intake experiments, wherein the principles of laboratory animal care were followed.
The rats arrived at least 10-14 days before the start of the experiment to allow acclimatization to experimental settings. During this period, the animals were handled (fixation by restrain in neck skin) at least 2 times. Immediately upon arrival, rats were changed to a reversed light cycle (dark from 11 am-11 pm) and were transferred to an automated food intake measuring system (HM2 system, MBRose; Faaborg, Denmark). […] To enable recording of individual food intake, rats were ID chipped. Three rats were housed in each cage. During the acclimatization period, in which the rats get used to the new light cycle and diet (LF 10% (D12450B), from Research Diets Inc.), the animals had free access to food and water. Since rats are normally active and consume most of their daily calories during the dark period, rats were dosed in the morning right before lights were turned off. Such a set-up results in the lowest data variation and highest test sensitivity. […] In each cage there were animals from three different treatment groups (to eliminate potential cage effects (e.g. cage malfunction) on primary readout: food intake). The rats were dosed once subcutaneously (s.c.) with the peptide of interest according to body weight (10 or 30 nmol/kg) in vehicle (0.5 ml/kg) using a NovoPen® (Novo Nordisk, Bagsvæed, Denmark).
The compounds of the invention were formulated (20 or 60 nmol/ml) in the following vehicle: 8 mM phosphate; 250 mM glycerol; 0.007% polysorbate 20, pH 7.4.
After dosing, the rats were returned to their home cages, where they continued to have ad libitum access to chow and water. The food consumption was recorded individually and continuously by the HM2 system from 0-72 h after test compound administration. Data obtained by the HM-2 system were stored in a HMBase SQL database (Firebird® relational database management system) and were processed by HM2Lab software (MBRose; Faaborg, Denmark) installed in an embedded computer. The feeding system is a highly sensitive system with a load resolution of 0.001 g.

Compared with “H[Aib]HGTFTSDYSILLEEQAAREFIEWLLAGGPSK([AEEA-AEEA-γGlu-C18 diacid])GAPPPSGGGGASELSTAALGRLSAELHRLATLPRTETGSGSP-NH2 [Compound 14]”, “H[Aib]HGTFTSDYSILLEEQAAREFIEWLLAGGPSK([AEEA-AEEA-γGlu-C18 diacid])GEASHLSTAQTARLSAELHELATLPRTETGSGSP-NH2 [Compound 36]” is higher in “Food intake (relative to vehicle) Day 1” value: −78% for the first, −44% for the second.

Going from “H[Aib]HGTFTSDYSILLEEQAAREFIEWLLAGGPSK([AEEA-AEEA-γGlu-C18 diacid])GEASQLSTAALGRLSAELHTLATLPRTETGSGSP-NH2 [Compound 63]” to “H[Aib]HGTFTSDYSILLEEQAAREFIEWLLAGGPSK([AEEA-AEEA-γGlu-C20 diacid])GAPPPSGGGEASELSTAALGRLSAELHELATLPRTETGSGSP-NH2 [Compound 16]”, the “Food intake (relative to vehicle) Day 1” value rises from −79% to −17%.

same assay, conditions: single dose 10 nmol/kg, day 2 [24-48 hours]

First: H[Aib]HGTFTSDYSILLEEQAAREFIEWLLAGGPSK([AEEA-AEEA-γGlu-C18 diacid])GAPPPSGGGGASELSTAALGRLSAELHRLATLPRTETGSGSP-NH2 [Compound 14]
Second: H[Aib]HGTFTSDYSILLEEQAAREFIEWLLAGGPSK([AEEA-AEEA-γGlu-C18 diacid])GEASHLSTAQTARLSAELHELATLPRTETGSGSP-NH2 [Compound 36]
The “Food intake (relative to vehicle) Day 2” value of the first is lower: −85% for the first, −45% for the second.

First: H[Aib]HGTFTSDYSILLEEQAAREFIEWLLAGGPSK([AEEA-AEEA-γGlu-C18 diacid])GEASQLSTAALGRLSAELHTLATLPRTETGSGSP-NH2 [Compound 63]
Second: H[Aib]HGTFTSDYSILLEEQAAREFIEWLLAGGPSK([AEEA-AEEA-γGlu-C20 diacid])GAPPPSGGGEASELSTAALGRLSAELHELATLPRTETGSGSP-NH2 [Compound 16]
The “Food intake (relative to vehicle) Day 2” value of the first is lower: −80% for the first, −11% for the second.

same assay, conditions: single dose 10 nmol/kg, day 3 [48-72 hours]

First: H[Aib]HGTFTSDYSILLEEQAAREFIEWLLAGGPSK([AEEA-AEEA-γGlu-C18 diacid])GAPPPSGGGGASELSTAALGRLSAELHRLATLPRTETGSGSP-NH2 [Compound 14]
Second: H[Aib]HGTFTSDYSILLEEQAAREFIEWLLAGGPSK([AEEA-AEEA-γGlu-C18 diacid])GEASHLSTAQTARLSAELHELATLPRTETGSGSP-NH2 [Compound 36]
The “Food intake (relative to vehicle) Day 3” value of the first is lower: −32% for the first, −3% for the second.

First: H[Aib]HGTFTSDYSILLEEQAAREFIEWLLAGGPSK([AEEA-AEEA-γGlu-C18 diacid])GEASQLSTAALGRLSAELHTLATLPRTETGSGSP-NH2 [Compound 63]
Second: H[Aib]HGTFTSDYSILLEEQAAREFIEWLLAGGPSK([AEEA-AEEA-γGlu-C20 diacid])GAPPPSGGGEASELSTAALGRLSAELHELATLPRTETGSGSP-NH2 [Compound 16]
The “Food intake (relative to vehicle) Day 3” value of the first is lower: −17% for the first, −10% for the second.

same assay, conditions: single dose 30 nmol/kg, day 1 [0-24 hours]

“H[Aib]HGTFTSDYSILLEEQAAREFIEWLLAGGPSK([AEEA-AEEA-γGlu-C20 diacid])GAPPPSGGGEASELSTAALGRLSAELHELATLPRTETGSGSP-NH2 [Compound 16]” was tested, and the “Food intake (relative to vehicle) Day 1” value was −39%.

same assay, conditions: single dose 30 nmol/kg, day 2 [24-48 hours]

For “H[Aib]HGTFTSDYSILLEEQAAREFIEWLLAGGPSK([AEEA-AEEA-γGlu-C20 diacid])GAPPPSGGGEASELSTAALGRLSAELHELATLPRTETGSGSP-NH2 [Compound 16]”, the “Food intake (relative to vehicle) Day 2” value was −22%.

same assay, conditions: single dose 30 nmol/kg, day 3 [48-72 hours]

“H[Aib]HGTFTSDYSILLEEQAAREFIEWLLAGGPSK([AEEA-AEEA-γGlu-C20 diacid])GAPPPSGGGEASELSTAALGRLSAELHELATLPRTETGSGSP-NH2 [Compound 16]” was tested, and the “Food intake (relative to vehicle) Day 3” value was −17%.
